Laboratory results from patent US12582625B2, “Methods for treating neuroblastoma” (priority 2015, dated 2026).
“And” between values parts separate entries of the source, which are not always exact repeats. Equal entries are not always repeated. “Also recorded” adds a separate entry of the source.

Key:
[1] = system: tumor putrescine levels; conditions: eflornithine infusion, without suppressing peripheral platelet counts; cited from earlier work
[2] = NMTRC003 phase II prevention trial: adverse events; type: in vivo
Experimental: Dosing diaries were required to be completed for each cycle. […] The primary endpoint was Event Free Survival (EFS); secondary objectives included Overall Survival (OS) and safety. EFS was defined as the period from the first day of administration of study drug to the first occurrence of relapse or death, and OS was defined as the first day of administration of study drug until death; subjects without an event were censored at the time of last contact. Safety analysis was conducted on all subjects who received at least one dose of study drug, and included the frequency, grading, expectedness and attribution of all adverse events as well as dose interruptions, dose reductions, and treatment discontinuation.

[3] = system: refractory or relapsed neuroblastoma; experiment: NMTRC 002: tumor response and progression free survival; type: in vivo, human; conditions: for PFS (days), individual patients: DFMO alone cycle 1, then with etoposide; for Status or Reason off study, individual patients: PF = progression free, PD = progressive disease
Experimental: Study Design and Treatment.
Tumor and clinical responses were monitored as secondary endpoints. Eighteen subjects were evaluated for efficacy. This study used the (RECIST) Response Evaluation Criteria measurements in Solid Tumor from the NCI (27) modified for pediatrics as well as MIBG or PET and bone marrow response. Tumor assessments/imaging studies were obtained at baseline>7 days from prior therapy and <21 days from the start of study therapy. These were repeated at the end of the first cycle and again after every other cycle.

[4] = human, in vivo, 27 4-week cycles

In the case of `NCCCC(N)(C(=O)O)C(F)F` (stereo not drawn) [DFMO, 2,5-diamino-2-(difluoromethyl) pentanoic acid], the “decrease in tumor putrescine levels” value [1] is listed as 90%, the “patients with grade 2-3 transaminitis (most common toxicity)” value ([2]; DFMO 500-1000 mg/m^2 BID) is listed as less than 10% and the tolerability ([2]; DFMO 500-1000 mg/m^2 BID) is listed as “well tolerated”. The “ALT elevation Grade 2, patients (%)” value ([2]; Stratum 1, n = 94) was 3 (3%), the “ALT elevation Grade 3, patients (%)” value ([2]; Stratum 1, n = 94) was 5 (5%) and the “ALT elevation Grade 4, patients (%)” value ([2]; Stratum 1, n = 94) was 0. The “ALT elevation Grade 5, patients (%)” value ([2]; Stratum 1, n = 94) was 0, the “AST elevation Grade 2, patients (%)” value ([2]; Stratum 1, n = 94) was 3 (3%) and the “AST elevation Grade 3, patients (%)” value ([2]; Stratum 1, n = 94) was 4 (4%). For the same compound, the “AST elevation Grade 4, patients (%)” value ([2]; Stratum 1, n = 94) was 0, the “AST elevation Grade 5, patients (%)” value ([2]; Stratum 1, n = 94) was 0 and the “Agitation Grade 2, patients (%)” value ([2]; Stratum 1, n = 94) was 1 (1%). The “Agitation Grade 3, patients (%)” value ([2]; Stratum 1, n = 94) was 0, the “Agitation Grade 4, patients (%)” value ([2]; Stratum 1, n = 94) was 0 and the “Agitation Grade 5, patients (%)” value ([2]; Stratum 1, n = 94) was 0. The “Alopecia Grade 2, patients (%)” value ([2]; Stratum 1, n = 94) was 1 (1%), the “Alopecia Grade 3, patients (%)” value ([2]; Stratum 1, n = 94) was 0 and the “Alopecia Grade 4, patients (%)” value ([2]; Stratum 1, n = 94) was 0. The “Alopecia Grade 5, patients (%)” value ([2]; Stratum 1, n = 94) was 0, the “Anemia Grade 2, patients (%)” value ([2]; Stratum 1, n = 94) was 4 (4%) and the “Anemia Grade 3, patients (%)” value ([2]; Stratum 1, n = 94) was 0. The “Anemia Grade 4, patients (%)” value ([2]; Stratum 1, n = 94) was 0, the “Anemia Grade 5, patients (%)” value ([2]; Stratum 1, n = 94) was 0 and the “Anorexia Grade 2, patients (%)” value ([2]; Stratum 1, n = 94) was 1 (1%). The “Anorexia Grade 3, patients (%)” value ([2]; Stratum 1, n = 94) was 0, the “Anorexia Grade 4, patients (%)” value ([2]; Stratum 1, n = 94) was 0 and the “Anorexia Grade 5, patients (%)” value ([2]; Stratum 1, n = 94) was 0. The “Diarrhea Grade 2, patients (%)” value ([2]; Stratum 1, n = 94) was 5 (5%), the “Diarrhea Grade 3, patients (%)” value ([2]; Stratum 1, n = 94) was 0 and the “Diarrhea Grade 4, patients (%)” value ([2]; Stratum 1, n = 94) was 0. For the same compound, the “Diarrhea Grade 5, patients (%)” value ([2]; Stratum 1, n = 94) was 0, the “Fever Grade 2, patients (%)” value ([2]; Stratum 1, n = 94) was 2 (2%) and the “Fever Grade 3, patients (%)” value ([2]; Stratum 1, n = 94) was 0. The “Fever Grade 4, patients (%)” value ([2]; Stratum 1, n = 94) was 0, the “Fever Grade 5, patients (%)” value ([2]; Stratum 1, n = 94) was 0 and the “Hearing Loss Grade 2, patients (%)” value ([2]; Stratum 1, n = 94) was 2 (2%). The “Hearing Loss Grade 3, patients (%)” value ([2]; Stratum 1, n = 94) was 4 (4%), the “Hearing Loss Grade 4, patients (%)” value ([2]; Stratum 1, n = 94) was 0 and the “Hearing Loss Grade 5, patients (%)” value ([2]; Stratum 1, n = 94) was 0. For the same compound, the “Hypoglycemia Grade 2, patients (%)” value ([2]; Stratum 1, n = 94) was 0, the “Hypoglycemia Grade 3, patients (%)” value ([2]; Stratum 1, n = 94) was 0 and the “Hypoglycemia Grade 4, patients (%)” value ([2]; Stratum 1, n = 94) was 1 (1%). For the same compound, the “Hypoglycemia Grade 5, patients (%)” value ([2]; Stratum 1, n = 94) was 0, the “Hypokalemia Grade 2, patients (%)” value ([2]; Stratum 1, n = 94) was 0 and the “Hypokalemia Grade 3, patients (%)” value ([2]; Stratum 1, n = 94) was 2 (2%). For the same compound, the “Hypokalemia Grade 4, patients (%)” value ([2]; Stratum 1, n = 94) was 0, the “Hypokalemia Grade 5, patients (%)” value ([2]; Stratum 1, n = 94) was 0 and the “INR Elevated Grade 2, patients (%)” value ([2]; Stratum 1, n = 94) was 1 (1%). The “INR Elevated Grade 3, patients (%)” value ([2]; Stratum 1, n = 94) was 0, the “INR Elevated Grade 4, patients (%)” value ([2]; Stratum 1, n = 94) was 0 and the “INR Elevated Grade 5, patients (%)” value ([2]; Stratum 1, n = 94) was 0. The “Infection, Other Grade 5, patients (%)” value ([2]; Stratum 1, n = 94) was 0, the “Infection, middle ear Grade 5, patients (%)” value ([2]; Stratum 1, n = 94) was 0 and the “Neutrophil count decrease Grade 2, patients (%)” value ([2]; Stratum 1, n = 94) was 4 (4%). For the same compound, the “Neutrophil count decrease Grade 3, patients (%)” value ([2]; Stratum 1, n = 94) was 3 (3%), the “Neutrophil count decrease Grade 4, patients (%)” value ([2]; Stratum 1, n = 94) was 0 and the “Neutrophil count decrease Grade 5, patients (%)” value ([2]; Stratum 1, n = 94) was 0. The “Pain Grade 2, patients (%)” value ([2]; Stratum 1, n = 94) was 2 (2%), the “Pain Grade 3, patients (%)” value ([2]; Stratum 1, n = 94) was 0 and the “Pain Grade 4, patients (%)” value ([2]; Stratum 1, n = 94) was 0. For the same compound, the “Pain Grade 5, patients (%)” value ([2]; Stratum 1, n = 94) was 0, the “Platelet count decrease Grade 2, patients (%)” value ([2]; Stratum 1, n = 94) was 2 (2%) and the “Platelet count decrease Grade 3, patients (%)” value ([2]; Stratum 1, n = 94) was 0. For the same compound, the “Platelet count decrease Grade 4, patients (%)” value ([2]; Stratum 1, n = 94) was 0, the “Platelet count decrease Grade 5, patients (%)” value ([2]; Stratum 1, n = 94) was 0 and the “Post Nasal Drip Grade 2, patients (%)” value ([2]; Stratum 1, n = 94) was 1 (1%). The “Post Nasal Drip Grade 3, patients (%)” value ([2]; Stratum 1, n = 94) was 0, the “Post Nasal Drip Grade 4, patients (%)” value ([2]; Stratum 1, n = 94) was 0 and the “Post Nasal Drip Grade 5, patients (%)” value ([2]; Stratum 1, n = 94) was 0. For the same compound, the “Rash Grade 2, patients (%)” value ([2]; Stratum 1, n = 94) was 1 (1%), the “Rash Grade 3, patients (%)” value ([2]; Stratum 1, n = 94) was 0 and the “Rash Grade 4, patients (%)” value ([2]; Stratum 1, n = 94) was 0. The “Rash Grade 5, patients (%)” value ([2]; Stratum 1, n = 94) was 0, the “Weight Gain Grade 2, patients (%)” value ([2]; Stratum 1, n = 94) was 1 (1%) and the “Weight Gain Grade 3, patients (%)” value ([2]; Stratum 1, n = 94) was 0. For the same compound, the “Weight Gain Grade 4, patients (%)” value ([2]; Stratum 1, n = 94) was 0, the “Weight Gain Grade 5, patients (%)” value ([2]; Stratum 1, n = 94) was 0 and the “White blood cell decreased Grade 2, patients (%)” value ([2]; Stratum 1, n = 94) was 2 (2%). The “White blood cell decreased Grade 3, patients (%)” value ([2]; Stratum 1, n = 94) was 0, the “White blood cell decreased Grade 4, patients (%)” value ([2]; Stratum 1, n = 94) was 0 and the “White blood cell decreased Grade 5, patients (%)” value ([2]; Stratum 1, n = 94) was 0. For the same compound, the “patients with an increase in hearing loss” value ([2]; among patients with pre-existing hearing loss, all returned to baseline after holding medication) was 4 patients, the “Infection, Other Grade 2, patients (%)” value [2, 4] was 2 (2%) and the “Infection, Other Grade 3, patients (%)” value [2, 4] was 0. The “Infection, Other Grade 4, patients (%)” value [2, 4] was 0, the “Infection, middle ear Grade 2, patients (%)” value [2, 4] was 2 (2%) and the “Infection, middle ear Grade 3, patients (%)” value [2, 4] was 0. The “Infection, middle ear Grade 4, patients (%)” value [2, 4] was 0, the “population that did not report any related adverse events” value ([2]; over 2 years) was 67% and the “serious adverse events (SAE)” value ([2]; whole study) was “only one SAE involving hypoglycemia”. For the same compound, the “patients alive without progression of disease” value ([3]; 2-4.5 years after starting DFMO) was “three subjects remain alive without progression of disease; also recorded: Three patients remain alive without progression of disease”, the “subjects with best response of progressive disease” value ([3]; 18 evaluable subjects) was 5 and the “subjects with best response of stable disease by RECIST” value ([3]; 18 evaluable subjects) was 12. The “patients with best response of PR” value ([3]; 18 evaluable subjects, MIBG evaluable disease only) was 1, the “Best Response (CT/MIBG), individual patients” value ([3]; DFMO dose 500 mg/m^2 BID) was “SD/PR” and the “PFS (days), individual patients” value ([3]; DFMO dose 500 mg/m^2 BID) was 94 days and 1573 days and 1559 days. The “Status or Reason off study, individual patients” value ([3]; DFMO dose 500 mg/m^2 BID) was “Alive (PF)”, the “PFS (days), individual patients” value ([3]; DFMO dose 750 mg/m^2 BID) was 418 days and 103 days and 67 days and 57 days and 31 days and the “PFS (days), individual patients” value ([3]; DFMO dose 1000 mg/m^2 BID) was 239 days and 64 days and 59 days. For the same compound, the “Best Response (CT/MIBG), individual patients” value ([3]; DFMO dose 1500 mg/m^2 BID) was “SD/PR; also recorded: (CT Neg)/PR”, the “PFS (days), individual patients” value ([3]; DFMO dose 1500 mg/m^2 BID) was 663 days and 209 days and 136 days and 62 days (3×) and 21 days and the “Status or Reason off study, individual patients” value ([3]; DFMO dose 1500 mg/m^2 BID) was “Alive (PF) and 2nd Leukemia”. For the same compound, the “mean progression free survival (PFS)” value ([3]; NMTRC 002, all evaluable subjects) was 420 days, the PFS ([3]; ODC SNP rs2302615 genotype Any A) was 282.1 ± 499.6 and the PFS ([3]; ODC SNP rs2302615 genotype GG) was 326.7 ± 501.6. The PFS ([3]; ODC SNP rs2302616 genotype Any T) was 498.0 ± 635.4, the PFS ([3]; ODC SNP rs2302616 genotype GG) was 110.8 ± 119.1 and the “median progression free survival (PFS)” value ([3]; all 18 evaluable subjects, 95% CI: 62-418 days (Saulnier Sholler et al., 2015)) was 80.5 days. The PFS ([3]; patients with GG at rs2302616) was 110 days, the PFS ([3]; patients with any minor T allele at rs2302616) was 498 days and the “response by PET scans” value ([3]; three subjects evaluated by PET) was “two had a complete response and one a partial response”.
